In experiment [1] the target is human CB1 receptor (hCB1) (Homo sapiens, UniProt P21554). The experiment can be described thus: cell-based. Format: cell-based. As for the experimental part:
(§1) The ability of compounds to act as agonists or inverse agonists at human CB2 and CB1 receptors (hCB2, hCB1, respectively) and at the rat CB2 receptor (rCB2) was determined by measuring changes in intracellular cAMP levels. Chinese Hamster Ovary (CHO-K1) cell lines stably expressing hCB2 (Genebank: X74328) or hCB1 (Genebank: X54937) were purchased from Euroscreen (Gosselies, Belgium). The rat CB2 receptor was expressed from genomic DNA (provided by M. Abood, California Pacific Medical Center) in CHO-K1 cells from expression plasmid vector, pcDNA3.1.
(§2) Cell lines were grown in suspension in EX-CELL 302 CHO Serum-free medium (Sigma, cat #14324C) supplemented with 1% Fetal Bovine Serum, glutamine and non-essential amino-acids under 0.4 mg/mL G418 selection.
(§3) Receptor mediated responses were determined by measuring changes in intracellular cAMP using LANCE cAMP detection kit (cat #AD0264, Perkin Elmer, Wellesley, Mass.) based on time-resolved fluorescence resonance energy transfer (TR-FRET). Changes in cAMP were determined in cells pre-incubated with IBMX (isobutyl methylxanthine) and prestimulated with NKH-477 (a water soluble forskolin derivative, cat #1603, Tocris, Ellisville, Mo.) to increase basal cAMP levels as detailed below.
(§4) On the day of the experiment, cells were spun at low speed for 5 min at room temperature. The supernatant was removed and cells were resuspended in stimulation buffer (Hanks Buffered Salt Solution/5 mM HEPES, containing 0.5 mM IBMX (cat #17018, Sigma) and 0.02% BSA (Perkin-Elmer, cat #CR84-100)). Cell clumps were removed by filtering through cell strainer 40 μm (BD Falcon, Discovery Labware, Bedford, Mass.) and diluted to 2×10^5 cells/mL. Antibody supplied with the LANCE cAMP immunoassay kit was then added according to the manufacturer's instructions. An aliquot of cells was taken for un-induced controls. To the remaining cells was added NKH-477 (a water soluble forskolin derivative, Tocris cat #1603) to a final concentration of 2-8 μM. Cells were then incubated for 30 min at room temperature prior to adding to Proxiplates containing test compounds (final DMSO concentration was less than 0.5%) with a Multidrop bulk dispenser, followed by a sixty minute incubation at room temperature. The response was stopped by addition of the detection mix supplied with the LANCE kit. The reagents were allowed to equilibrate for three hours prior to reading on an Envision multi-mode detector (Perkin-Elmer). TR-FRET was measured using a 330-380 nm excitation filter, a 665 nm emission filter, dichroic mirror 380 nm and Z=1 mm. Cyclic AMP concentrations in each well were back-calculated from a cAMP standard curve run concurrently during each assay. Each plate contained 16 wells of forskolin stimulated cells and 16 wells of forskolin plus CP55,940-treated cells. Cells were treated with 1 μM CP55,940 (Tocris cat. #0949). Concentrations of cAMP were expressed as a percent of the difference of these two groups of wells. Concentration-response data including EC50 (the concentration of compound producing 50% of the maximal response) and intrinsic activity (the percent maximal activation compared to full activation by CP55,940) were determined using a four-parameter non-linear regression algorithm (Xlfit equation 251, IDBS).

Experiment [2] has as its target T1, rat CB2 receptor (rCB2) (Rattus norvegicus, UniProt Q9QZN9).
T1 sequence (Q9QZN9 1-360): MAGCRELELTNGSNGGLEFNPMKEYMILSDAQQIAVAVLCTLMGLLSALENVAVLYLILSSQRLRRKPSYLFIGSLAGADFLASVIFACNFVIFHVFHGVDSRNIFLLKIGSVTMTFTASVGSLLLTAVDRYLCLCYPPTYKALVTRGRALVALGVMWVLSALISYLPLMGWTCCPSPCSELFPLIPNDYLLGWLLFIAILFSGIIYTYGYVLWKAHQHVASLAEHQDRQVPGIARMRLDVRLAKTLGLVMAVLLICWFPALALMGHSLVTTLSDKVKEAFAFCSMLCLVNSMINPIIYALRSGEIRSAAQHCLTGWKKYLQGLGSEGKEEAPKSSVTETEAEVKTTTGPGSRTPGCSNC
The experiment can be described thus: cell-based. The format is cell-based. To be noted: for +/− RCB2: agonist or inverse agonist at rCB2. As for the experimental part: as §1, §2, §3, §4

Setting [3] is: groups >100 nM-10 μM and >10 μM, cAMP, CHO-K1 hCB1, read-out: EC50 HCB1.
[4] abbreviates: groups >100 nM-10 μM and >10 μM, cAMP, CHO-K1 rCB2, read-out: EC50 RCB2.

20 compounds from patent US7517874B2 (priority 2007, dated 2009) can be followed below.

Where two headings read alike, the source gives them in different places.

Chain of human CB1 receptor (hCB1) (P21554 whole entry): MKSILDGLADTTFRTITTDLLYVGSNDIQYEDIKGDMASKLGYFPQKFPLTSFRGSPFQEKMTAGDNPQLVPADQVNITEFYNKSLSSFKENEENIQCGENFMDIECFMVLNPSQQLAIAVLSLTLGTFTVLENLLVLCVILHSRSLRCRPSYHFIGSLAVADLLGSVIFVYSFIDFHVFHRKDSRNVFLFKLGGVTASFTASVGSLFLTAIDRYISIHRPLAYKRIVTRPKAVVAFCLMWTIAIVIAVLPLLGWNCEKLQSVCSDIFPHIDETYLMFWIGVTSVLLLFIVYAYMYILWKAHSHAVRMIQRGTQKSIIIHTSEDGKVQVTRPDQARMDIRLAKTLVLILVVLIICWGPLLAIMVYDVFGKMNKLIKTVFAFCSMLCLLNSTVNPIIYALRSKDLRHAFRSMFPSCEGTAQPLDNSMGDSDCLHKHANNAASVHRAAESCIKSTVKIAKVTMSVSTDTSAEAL

Broadly, the EC50 is the concentration at which the effect is half-maximal. As for `CNC(=O)[C@@H](NC(=O)c1nc(-c2ccc(C(F)(F)F)cc2)n2c1CNCC2)C(C)(C)C` [Compound 5, (S)-N-(3,3-dimethyl-1-(methylamino)-1-oxobutan-2-yl)-3-(4-(trifluoromethyl)phenyl)-5,6,7,8-tetrahydroimidazo[1,5-a]pyrazine-1-carboxamide], the EC50 in experiment [1] is greater than 10000 nM. Moreover, the “+/− RCB2” value in experiment [2] is reported as “−”.
For `CNC(=O)[C@@H](NC(=O)c1nc(-c2ccc(F)cc2)n2c1CNCC2)C(C)(C)C` [Compound 6, (S)-N-(3,3-dimethyl-1-(methylamino)-1-oxobutan-2-yl)-3-(4-fluorophenyl)-5,6,7,8-tetrahydroimidazo[1,5-a]pyrazine-1-carboxamide], the EC50 in experiment [1] and in experiment [2] was greater than 10000 nM throughout.
Consider `CNC(=O)[C@@H](NC(=O)c1nc(-c2ccc(F)c(C)c2)n2c1CNCC2)C(C)(C)C` [Compound 7, (S)-N-(3,3-dimethyl-1-(methylamino)-1-oxobutan-2-yl)-3-(4-fluoro-3-methylphenyl)-5,6,7,8-tetrahydroimidazo[1,5-a]pyrazine-1-carboxamide], for which the EC50 in experiment [1] is greater than 10000 nM. Also, in experiment [2], the “+/− RCB2” value is “−”.
The corresponding values for `CNC(=O)[C@@H](NC(=O)c1nc(-c2cccc(C)c2)n2c1CNCC2)C(C)(C)C` [Compound 8, (S)-N-(3,3-dimethyl-1-(methylamino)-1-oxobutan-2-yl)-3-m-tolyl-5,6,7,8-tetrahydroimidazo[1,5-a]pyrazine-1-carboxamide] are greater than 10000 nM and “−”.
For `CNC(=O)[C@@H](NC(=O)c1nc(-c2ccc(Cl)cc2)n2c1CNCC2)C(C)(C)C` [Compound 9, (S)-3-(4-chlorophenyl)-N-(3,3-dimethyl-1-(methylamino)-1-oxobutan-2-yl)-5,6,7,8-tetrahydroimidazo[1,5-a]pyrazine-1-carboxamide], in that order: greater than 10000 nM and “−”.
`CNC(=O)[C@@H](NC(=O)c1nc(-c2ccccc2Cl)n2c1CNCC2)C(C)(C)C` [Compound 10, (S)-3-(2-chlorophenyl)-N-(3,3-dimethyl-1-(methylamino)-1-oxobutan-2-yl)-5,6,7,8-tetrahydroimidazo[1,5-a]pyrazine-1-carboxamide] yielded an EC50 in experiment [1] greater than 10000 nM. Further, in experiment [2], the “+/− RCB2” value is “+”.
`CNC(=O)[C@@H](NC(=O)c1nc(-c2ccsc2)n2c1CNCC2)C(C)(C)C` [Compound 11, (S)-N-(3,3-dimethyl-1-(methylamino)-1-oxobutan-2-yl)-3-(thiophen-3-yl)-5,6,7,8-tetrahydroimidazo[1,5-a]pyrazine-1-carboxamide]: the EC50 in experiment [1] is greater than 10000 nM. The “+/− RCB2” value in experiment [2] is “+”.
On to `CNC(=O)[C@@H](NC(=O)c1nc(-c2ccoc2)n2c1CNCC2)C(C)(C)C` [Compound 12, (S)-N-(3,3-dimethyl-1-(methylamino)-1-oxobutan-2-yl)-3-(furan-3-yl)-5,6,7,8-tetrahydroimidazo[1,5-a]pyrazine-1-carboxamide], for which the EC50 in experiment [1] was greater than 10000 nM. Also, in experiment [2], the “+/− RCB2” value was “−”.
On to `CNC(=O)[C@@H](NC(=O)c1nc(Cc2ccccc2)n2c1CNCC2)C(C)(C)C` [Compound 13, (S)-3-benzyl-N-(3,3-dimethyl-1-(methylamino)-1-oxobutan-2-yl)-5,6,7,8-tetrahydroimidazo[1,5-a]pyrazine-1-carboxamide], for which the EC50 in experiment [1] and in experiment [2] was greater than 10000 nM in each case.
`CNC(=O)[C@@H](NC(=O)c1nc(-c2cccnc2)n2c1CNCC2)C(C)(C)C` [Compound 14, (S)-N-(3,3-dimethyl-1-(methylamino)-1-oxobutan-2-yl)-3-(pyridin-3-yl)-5,6,7,8-tetrahydroimidazo[1,5-a]pyrazine-1-carboxamide]: the EC50 in experiment [1] is greater than 10000 nM. The “+/− RCB2” value in experiment [2] is reported as “+”.
In experiment [1], `CNC(=O)[C@@H](NC(=O)c1nc(-c2ccco2)n2c1CNCC2)C(C)(C)C` [Compound 15, (S)-N-(3,3-dimethyl-1-(methylamino)-1-oxobutan-2-yl)-3-(furan-2-yl)-5,6,7,8-tetrahydroimidazo[1,5-a]pyrazine-1-carboxamide] returned a concentration for a half-maximal effect (EC50) greater than 10000 nM. Further, the “+/− RCB2” value in experiment [2] was “+”.
Turning to `CNC(=O)[C@@H](NC(=O)c1nc(-c2cccs2)n2c1CNCC2)C(C)(C)C` [Compound 16, (S)-N-(3,3-dimethyl-1-(methylamino)-1-oxobutan-2-yl)-3-(thiophen-2-yl)-5,6,7,8-tetrahydroimidazo[1,5-a]pyrazine-1-carboxamide], the EC50 in experiment [1] is greater than 10000 nM. In addition, the “+/− RCB2” value in experiment [2] is recorded as “+”.
In the case of `CNC(=O)[C@@H](NC(=O)c1nc(-c2cnn(C)c2)n2c1CNCC2)C(C)(C)C` [Compound 17, (S)-N-(3,3-dimethyl-1-(methylamino)-1-oxobutan-2-yl)-3-(1-methyl-1H-pyrazol-4-yl)-5,6,7,8-tetrahydroimidazo[1,5-a]pyrazine-1-carboxamide], the concentration for a half-maximal effect (EC50) in experiment [1] (setting [3]) and in experiment [2] (setting [4]) was greater than 10000 nM in each case.
In experiment [1], `CNC(=O)[C@@H](NC(=O)c1nc(-c2cccc(Cl)c2)n2c1CNCC2)C(C)(C)C` [Compound 18, (S)-3-(3-chlorophenyl)-N-(3,3-dimethyl-1-(methylamino)-1-oxobutan-2-yl)-5,6,7,8-tetrahydroimidazo[1,5-a]pyrazine-1-carboxamide] displayed an EC50 greater than 10000 nM. Also, in experiment [2], the “+/− RCB2” value is on record as “−”.
Turning to `CNC(=O)[C@@H](NC(=O)c1nc(-c2cncnc2)n2c1CNCC2)C(C)(C)C` [Compound 19, (S)-N-(3,3-dimethyl-1-(methylamino)-1-oxobutan-2-yl)-3-(pyrimidin-5-yl)-5,6,7,8-tetrahydroimidazo[1,5-a]pyrazine-1-carboxamide], the EC50 in experiment [1] and in experiment [2] was greater than 10000 nM in each case.
In experiment [1], `CNC(=O)[C@@H](NC(=O)c1nc(-c2cscc2C)n2c1CNCC2)C(C)(C)C` [Compound 21, (S)-N-(3,3-dimethyl-1-(methylamino)-1-oxobutan-2-yl)-3-(4-methylthiophen-3-yl)-5,6,7,8-tetrahydroimidazo[1,5-a]pyrazine-1-carboxamide] came in with an EC50 greater than 10000 nM. Also, the “+/− RCB2” value in experiment [2] is “+”.
For the compound `CC(C)(C)[C@@H](CO)NC(=O)c1nc(-c2ccccc2)n2c1CNCC2` [Compound 22, (S)-N-(1-hydroxy-3,3-dimethylbutan-2-yl)-3-phenyl-5,6,7,8-tetrahydroimidazo[1,5-a]pyrazine-1-carboxamide], in experiment [1], the EC50 is greater than 10000 nM. For the same compound, in experiment [2], the “+/− RCB2” value is on record as “−”.
The corresponding values for `CC(C)(C)[C@H](CO)NC(=O)c1nc(-c2ccccc2)n2c1CNCC2` [Compound 23, (R)-N-(1-hydroxy-3,3-dimethylbutan-2-yl)-3-phenyl-5,6,7,8-tetrahydroimidazo[1,5-a]pyrazine-1-carboxamide] are greater than 10000 nM and “+”.
In the case of `CC(C)(C)CNC(=O)c1nc(-c2ccccc2)n2c1CNCC2` [Compound 24, N-neopentyl-3-phenyl-5,6,7,8-tetrahydroimidazo[1,5-a]pyrazine-1-carboxamide], the EC50 in experiment [1] (setting [3]) and in experiment [2] (setting [4]) was greater than 10000 nM each time.
On to `O=C(c1nc(-c2ccccc2)n2c1CNCC2)N1CCOCC1` [Compound 25, morpholino(3-phenyl-5,6,7,8-tetrahydroimidazo[1,5-a]pyrazin-1-yl)methanone], for which the EC50 in experiment [1] (setting [3]) and in experiment [2] (setting [4]) was greater than 10000 nM in each case.
